{"source": "paper PMC4778904", "about": "“The Curcumin Analog C-150, Influencing NF-κB, UPR and Akt/Notch Pathways Has Potent Anticancer Activity In Vitro and In Vivo” (PLoS ONE, 2016)", "biological_target": "T1, PKC-alpha (Homo sapiens, UniProt P17252)", "T1 construct": "gene PRKCA", "assay": "IMAP-FP kinase activity assay (Proteros selectivity panel), single concentration […], ATP at Km app; […] inhibition", "type": "biochemical"}
{"smiles": "C=CC(=O)NC(c1ccccc1)C(C(=O)/C=C/c1cccc(O)c1)C(=O)/C=C/c1cccc(O)c1", "note": "(stereo not shown) [compound 3, N-((E)-5-(3-hydroxyphenyl)-2-((E)-3-(3-hydroxyphenyl)acryloyl)-3-oxo-1-phenylpent-4-en-1-yl)acrylamide]", "values": [{"measurement": "inhibition at 1 µM", "result": 32.8, "unit": "%"}]}
